The test system of this assay is HT-29-MTX intestinal cells. Nature of the assay: IL-10 secretion by intestinal cells. It counts as cell-based. As to conditions: cells treated with cisplatin alone; FIG. 3. The text has this: IL-10 secretion peaked between 24-48 hrs and preceded mucin secretion (72-96 hr).

For `N.N.[Cl][Pt][Cl]` [cisplatin], the IL-10 secretion entry is “secreted more IL-10”.

Source of the values: patent US20240091149A1, “COMPOSITIONS AND METHODS FOR IMPROVING GASTROINTESTINAL ABSORPTION OF ELECTROLYTES” (IGH NATURALS, INC., priority 2020, published 2024).
